# Measured values as given in ChEMBL document CHEMBL1201862, “PubChem BioAssay data set” (2004).
#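 Exposure lasted 48 hours, with cells grown in 96-well plates and compounds tested at five concentrations. GI50 is the concentration that inhibits growth by half.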 Activity calls are given as the source filed them. Cut-off read from the data, not from the text of the source: active = GI50 up to about 1.1 µM and inactive = higher.
# Experiments:
# Assay in all cases: inhibition of tumour cell growth, NCI panel, 48 h
# SK-MEL-5 = test system: SK-MEL-5
# SF-268 = test system: SF-268
# UO-31 = test system: UO-31
# HCC 2998 = test system: HCC 2998
# K562 = test system: K562
# PC-3 = test system: PC-3
# T47D = test system: T47D
# NCI-H226 = test system: NCI-H226
# Hs-578T = test system: Hs-578T
# MDA-MB-435 = test system: MDA-MB-435
# LOX IMVI = test system: LOX IMVI
# IGROV-1 = test system: IGROV-1
# HCT-15 = test system: HCT-15
# RXF 393 = test system: RXF 393
# OVCAR-5 = test system: OVCAR-5
# KM12 = test system: KM12
# SK-MEL-2 = test system: SK-MEL-2
# SK-MEL-28 = test system: SK-MEL-28
# MCF7 = test system: MCF7
# HT-29 = test system: HT-29
# UACC-257 = test system: UACC-257
# OVCAR-3 = test system: OVCAR-3
# MDA-N = test system: MDA-N
# HL-60 = test system: HL-60
# U-251 = test system: U-251
# TK-10 = test system: TK-10
# M14 = test system: M14
# ACHN = test system: ACHN
# CAKI-1 = test system: CAKI-1
# HCT-116 = test system: HCT-116
# A549 = test system: A549
# SF-539 = test system: SF-539
# DU-145 = test system: DU-145
# A498 = test system: A498
# SR = test system: SR
# MOLT-4 = test system: MOLT-4
# NCI-H23 = test system: NCI-H23
# OVCAR-4 = test system: OVCAR-4
# NCI-H522 = test system: NCI-H522
# RPMI-8226 = test system: RPMI-8226
# HOP-92 = test system: HOP-92
# 786-0 = test system: 786-0
# MDA-MB-231 = test system: MDA-MB-231
# EKVX = test system: EKVX
# BT-549 = test system: BT-549
# SNB-75 = test system: SNB-75
# OVCAR-8 = test system: OVCAR-8
# SW-620 = test system: SW-620
# HOP-62 = test system: HOP-62
# SF-295 = test system: SF-295
# NCI/ADR-RES = test system: NCI/ADR-RES
# NCI-H460 = test system: NCI-H460
# CCRF-CEM = test system: CCRF-CEM
# SN12C = test system: SN12C
# UACC-62 = test system: UACC-62
# COLO 205 = test system: COLO 205
# SNB-19 = test system: SNB-19
# SK-OV-3 = test system: SK-OV-3
# Malme-3M = test system: Malme-3M
smiles,measurement,setting,value
COc1cc(/C=C2\N=C(c3ccccc3)N(C3Nc4cc5c(cc4S3)NC(N3C(=O)/C(=C/c4cc(OC)c(OC)c(OC)c4)N=C3c3ccccc3)S5)C2=O)cc(OC)c1OC (stereo not given),GI50,SK-MEL-5,64.9 µM (inactive)
same,GI50,SF-268,> 100 µM (inactive)
same,GI50,UO-31,54.1 µM (inactive)
same,GI50,HCC 2998,> 100 µM (inactive)
same,GI50,K562,71.9 µM (inactive)
same,GI50,PC-3,82.6 µM (inactive)
same,GI50,T47D,56.2 µM (inactive)
same,GI50,NCI-H226,> 100 µM (inactive)
same,GI50,Hs-578T,> 100 µM (inactive)
same,GI50,MDA-MB-435,> 100 µM (inactive)
same,GI50,LOX IMVI,74.1 µM (inactive)
same,GI50,IGROV-1,> 100 µM (inactive)
same,GI50,HCT-15,57.5 µM
same,GI50,RXF 393,> 100 µM (inactive)
same,GI50,OVCAR-5,> 100 µM (inactive)
same,GI50,KM12,89.3 µM (inactive)
same,GI50,SK-MEL-2,> 100 µM (inactive)
same,GI50,SK-MEL-28,> 100 µM (inactive)
same,GI50,MCF7,46.7 µM (inactive)
same,GI50,HT-29,74.6 µM (inactive)
same,GI50,UACC-257,> 100 µM (inactive)
same,GI50,OVCAR-3,61 µM (inactive)
same,GI50,MDA-N,74.3 µM (inactive)
same,GI50,HL-60,65.9 µM (inactive)
same,GI50,U-251,45.2 µM (inactive)
same,GI50,TK-10,> 100 µM (inactive)
same,GI50,M14,> 100 µM (inactive)
same,GI50,ACHN,> 100 µM (inactive)
same,GI50,CAKI-1,39.9 µM (inactive)
same,GI50,HCT-116,77.6 µM (inactive)
same,GI50,A549,23.6 µM (inactive)
same,GI50,SF-539,42 µM (inactive)
same,GI50,DU-145,94.8 µM (inactive)
same,GI50,A498,68.4 µM (inactive)
same,GI50,SR,20.5 µM (inactive)
same,GI50,MOLT-4,25.9 µM (inactive)
same,GI50,NCI-H23,94.6 µM (inactive)
same,GI50,OVCAR-4,70.5 µM (inactive)
same,GI50,NCI-H522,60.3 µM (inactive)
same,GI50,RPMI-8226,28.8 µM (inactive)
same,GI50,HOP-92,> 100 µM (inactive)
same,GI50,786-0,61.1 µM (inactive)
same,GI50,MDA-MB-231,> 100 µM (inactive)
same,GI50,EKVX,44.1 µM (inactive)
same,GI50,BT-549,97.1 µM (inactive)
same,GI50,SNB-75,> 100 µM (inactive)
same,GI50,OVCAR-8,83.9 µM (inactive)
same,GI50,SW-620,> 100 µM (inactive)
same,GI50,HOP-62,> 100 µM (inactive)
same,GI50,SF-295,83.6 µM (inactive)
same,GI50,NCI/ADR-RES,38.5 µM (inactive)
same,GI50,NCI-H460,13.7 µM (inactive)
COc1cc2cc(C(=O)N3CC(COS(C)(=O)=O)c4c3cc(N)c3ccccc43)[nH]c2c(OC)c1OC (stereo not given),GI50,SK-MEL-5,< 0.01 µM (active)
same,GI50,SF-268,0.0188 µM (active)
same,GI50,UO-31,0.0141 µM (active)
same,GI50,HCC 2998,0.0148 µM (active)
same,GI50,PC-3,0.0422 µM (active)
same,GI50,CCRF-CEM,0.0128 µM (active)
same,GI50,T47D,0.0385 µM (active)
same,GI50,SN12C,0.0221 µM (active)
same,GI50,UACC-62,0.0146 µM (active)
same,GI50,NCI-H226,0.0469 µM (active)
same,GI50,Hs-578T,0.252 µM (active)
same,GI50,MDA-MB-435,0.0152 µM (active)
same,GI50,LOX IMVI,0.0172 µM (active)
same,GI50,IGROV-1,0.0228 µM (active)
same,GI50,HCT-15,< 0.0206 µM
same,GI50,RXF 393,0.0177 µM (active)
same,GI50,OVCAR-5,0.021 µM (active)
same,GI50,KM12,0.0194 µM (active)
same,GI50,SK-MEL-2,0.0716 µM (active)
same,GI50,SK-MEL-28,0.0266 µM (active)
same,GI50,MCF7,< 0.0122 µM (active)
same,GI50,HT-29,< 0.01 µM (active)
same,GI50,UACC-257,0.0209 µM (active)
same,GI50,OVCAR-3,0.0404 µM (active)
same,GI50,COLO 205,0.0244 µM (active)
same,GI50,MDA-N,0.0195 µM (active)
same,GI50,HL-60,< 0.01 µM (active)
same,GI50,U-251,0.0141 µM (active)
same,GI50,TK-10,< 0.01 µM (active)
same,GI50,M14,0.0169 µM (active)
same,GI50,SNB-19,< 0.0491 µM (active)
same,GI50,ACHN,< 0.01 µM (active)
same,GI50,CAKI-1,0.0211 µM (active)
same,GI50,HCT-116,0.0108 µM (active)
same,GI50,A549,0.0146 µM (active)
same,GI50,SF-539,0.0177 µM (active)
same,GI50,DU-145,0.0154 µM (active)
same,GI50,A498,0.0219 µM (active)
same,GI50,SR,< 0.01 µM (active)
same,GI50,MOLT-4,0.0149 µM (active)
same,GI50,NCI-H23,< 0.0179 µM (active)
same,GI50,OVCAR-4,< 0.0376 µM (active)
same,GI50,NCI-H522,0.0146 µM (active)
same,GI50,SK-OV-3,0.0444 µM (active)
same,GI50,RPMI-8226,0.0175 µM (active)
same,GI50,HOP-92,< 0.0266 µM (active)
same,GI50,786-0,< 0.01 µM (active)
same,GI50,MDA-MB-231,< 0.01 µM (active)
same,GI50,EKVX,0.0216 µM (active)
same,GI50,BT-549,0.0187 µM (active)
same,GI50,SNB-75,< 0.01 µM (active)
same,GI50,OVCAR-8,0.0136 µM (active)
same,GI50,SW-620,0.0148 µM (active)
same,GI50,HOP-62,0.0191 µM (active)
same,GI50,SF-295,0.0195 µM (active)
same,GI50,NCI/ADR-RES,0.0123 µM (active)
same,GI50,NCI-H460,< 0.01 µM (active)
C[N+](C)(CCNc1ccc(NCC[N+](C)(C)Cc2ccc([N+](=O)[O-])cc2)c2c1C(=O)c1ccccc1C2=O)Cc1ccc([N+](=O)[O-])cc1,GI50,SK-MEL-5,> 100 µM (inactive)
same,GI50,SF-268,> 100 µM (inactive)
same,GI50,UO-31,> 100 µM (inactive)
same,GI50,HCC 2998,> 100 µM (inactive)
same,GI50,K562,70.3 µM (inactive)
same,GI50,PC-3,> 100 µM (inactive)
same,GI50,CCRF-CEM,> 100 µM (inactive)
same,GI50,T47D,> 100 µM (inactive)
same,GI50,SN12C,> 100 µM (inactive)
same,GI50,UACC-62,> 100 µM (inactive)
same,GI50,NCI-H226,> 100 µM (inactive)
same,GI50,Hs-578T,> 100 µM (inactive)
same,GI50,MDA-MB-435,> 100 µM (inactive)
same,GI50,LOX IMVI,> 100 µM (inactive)
same,GI50,IGROV-1,> 100 µM (inactive)
same,GI50,HCT-15,> 100 µM
same,GI50,OVCAR-5,> 100 µM (inactive)
same,GI50,KM12,> 100 µM (inactive)
same,GI50,SK-MEL-2,> 100 µM (inactive)
same,GI50,MCF7,> 100 µM (inactive)
same,GI50,HT-29,> 100 µM (inactive)
same,GI50,UACC-257,> 100 µM (inactive)
same,GI50,OVCAR-3,> 100 µM (inactive)
same,GI50,COLO 205,> 100 µM (inactive)
same,GI50,MDA-N,> 100 µM (inactive)
same,GI50,HL-60,> 100 µM (inactive)
same,GI50,U-251,> 100 µM (inactive)
same,GI50,TK-10,> 100 µM (inactive)
same,GI50,M14,> 100 µM (inactive)
same,GI50,SNB-19,> 100 µM (inactive)
same,GI50,ACHN,> 100 µM (inactive)
same,GI50,CAKI-1,> 100 µM (inactive)
same,GI50,HCT-116,> 100 µM (inactive)
same,GI50,A549,> 100 µM (inactive)
same,GI50,SF-539,> 100 µM (inactive)
same,GI50,DU-145,> 100 µM (inactive)
same,GI50,A498,> 100 µM (inactive)
same,GI50,SR,> 100 µM (inactive)
same,GI50,MOLT-4,> 100 µM (inactive)
same,GI50,NCI-H23,> 100 µM (inactive)
same,GI50,OVCAR-4,> 100 µM (inactive)
same,GI50,NCI-H522,> 100 µM (inactive)
same,GI50,SK-OV-3,> 100 µM (inactive)
same,GI50,HOP-92,> 100 µM (inactive)
same,GI50,786-0,> 100 µM (inactive)
same,GI50,MDA-MB-231,> 100 µM (inactive)
same,GI50,Malme-3M,> 100 µM (inactive)
same,GI50,EKVX,> 100 µM (inactive)
same,GI50,BT-549,> 100 µM (inactive)
same,GI50,SNB-75,> 100 µM (inactive)
same,GI50,OVCAR-8,> 100 µM (inactive)
same,GI50,SW-620,> 100 µM (inactive)
same,GI50,HOP-62,> 100 µM (inactive)
same,GI50,SF-295,> 100 µM (inactive)
same,GI50,NCI/ADR-RES,> 100 µM (inactive)
same,GI50,NCI-H460,> 100 µM (inactive)
